Patent US6355799B1, “Substituted benzene compounds, process for their preparation, and herbicidal and defoliant compositions containing them” (ISK Americas Incorporated, priority 1997, dated 2002)

Experiments:
Format in all cases: in vivo
[1] = test system: redroot pigweed (Amaranthus retroflexus, AMARE); assay: Pre-emerge test, greenhouse herbicide activity screening; conditions: pre-emerge, rated 14 days after application, 0 = no damage, 100 = complete death
Procedure, shortened: (§1)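 Sandy loam pots; pre-emerge: sown 1 d pre-spray, surface-watered after, then bottom-watered. Post-emerge: sown 8–21 d before, 2–3 leaf stage, + 0.25% v/v NIS, bottom-watered. Acetone, 187 l/ha track spray, 15–1000 g ai/ha. 0–100 injury score, day 14.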

[2] = test system: barnyardgrass (Echinochloa crus-galli, ECHCG); assay: as above; conditions: pre-emerge, rated 14 days after application, 0 = no damage, 100 = complete death
Procedure, shortened: as §1

[3] = test system: green foxtail (Setaria viridis, SETVI); assay: as above; conditions: pre-emerge, rated 14 days after application, 0 = no damage, 100 = complete death
Procedure, shortened: as §1

[4] = test system: ivyleaf morningglory (Ipomoea hederacea, IPOHE); assay: as above; conditions: pre-emerge, rated 14 days after application, 0 = no damage, 100 = complete death
Procedure, shortened: as §1

[5] = test system: johnsongrass (Sorghum halepense, SORHA); assay: as above; conditions: pre-emerge, rated 14 days after application, 0 = no damage, 100 = complete death
Procedure, shortened: as §1

[6] = test system: lambsquarters (Chenopodium album, CHEAL); assay: as above; conditions: pre-emerge, rated 14 days after application, 0 = no damage, 100 = complete death
Procedure, shortened: as §1

[7] = test system: large crabgrass (Digitaria sanguinalis, DIGSA); assay: as above; conditions: pre-emerge, rated 14 days after application, 0 = no damage, 100 = complete death
Procedure, shortened: as §1

[8] = test system: sicklepod (Cassia obtusifolia, CASOB); assay: as above; conditions: pre-emerge, rated 14 days after application, 0 = no damage, 100 = complete death
Procedure, shortened: as §1

[9] = test system: velvetleaf (Abutilon theophrasti, ABUTH); assay: as above; conditions: pre-emerge, rated 14 days after application, 0 = no damage, 100 = complete death
Procedure, shortened: as §1

[10] = test system: field corn (Zea mays L., var. Dekalb 535, CORN); assay: Pre-emerge test, crop safety; conditions: pre-emerge, rated 14 days after application, 0 = no damage, 100 = complete death
Procedure, shortened: (§2)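 Applied at 15–1000 g ai/ha from acetone in 187 l/ha spray volume. Post-emergence applications included 0.25% v/v non-ionic surfactant and reached plants sown 8–21 days before. Pre-emergence applications were incorporated by surface watering. Efficacy or crop damage was rated on a 0–100 scale after 14 days.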

[11] = test system: upland rice (Oryza sp., var. Tebonnet, RICE); assay: Pre-emerge test, crop safety; conditions: pre-emerge, rated 14 days after application, 0 = no damage, 100 = complete death
Procedure, shortened: as §2

[12] = test system: barnyardgrass (Echinochloa crus-galli, ECHCG); assay: Post-emerge test, greenhouse herbicide activity screening; conditions: phytotoxicity rating 0-100 (0 no damage, 100 complete death), 14 days after application
Procedure, shortened: (§3)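 Compounds in acetone were track-sprayed at 15-1000 g ai/ha (187 l/ha) on sandy loam pots: pre-emerge one day after seeding, post-emerge at 2-3 leaf stage with 0.25% v/v non-ionic surfactant. Phytotoxicity was rated 14 days later on a 0 (no damage) to 100 (complete death) scale.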

[13] = test system: green foxtail (Setaria viridis, SETVI); assay: as above; conditions: phytotoxicity rating 0-100 (0 no damage, 100 complete death), 14 days after application
Procedure, shortened: as §3

[14] = test system: ivyleaf morningglory (Ipomoea hederacea, IPOHE); assay: as above; conditions: phytotoxicity rating 0-100 (0 no damage, 100 complete death), 14 days after application
Procedure, shortened: as §3

[15] = test system: johnsongrass (Sorghum halepense, SORHA); assay: as above; conditions: phytotoxicity rating 0-100 (0 no damage, 100 complete death), 14 days after application
Procedure, shortened: as §3

[16] = test system: lambsquarters (Chenopodium album, CHEAL); assay: as above; conditions: phytotoxicity rating 0-100 (0 no damage, 100 complete death), 14 days after application
Procedure, shortened: as §3

[17] = test system: large crabgrass (Digitaria sanguinalis, DIGSA); assay: as above; conditions: phytotoxicity rating 0-100 (0 no damage, 100 complete death), 14 days after application
Procedure, shortened: as §3

[18] = test system: redroot pigweed (Amaranthus retroflexus, AMARE); assay: as above; conditions: phytotoxicity rating 0-100 (0 no damage, 100 complete death), 14 days after application
Procedure, shortened: as §3

[19] = test system: sicklepod (Cassia obtusifolia, CASOB); assay: as above; conditions: phytotoxicity rating 0-100 (0 no damage, 100 complete death), 14 days after application
Procedure, shortened: as §3

[20] = test system: velvetleaf (Abutilon theophrasti, ABUTH); assay: as above; conditions: phytotoxicity rating 0-100 (0 no damage, 100 complete death), 14 days after application
Procedure, shortened: as §3

[21] = test system: field corn (Zea mays L., var. Dekalb 535, CORN); assay: Post-emerge test, crop safety; conditions: phytotoxicity rating 0-100 (0 no damage, 100 complete death), 14 days after application
Procedure, shortened: as §1

[22] = test system: upland rice (Oryza sp., var. Tebonnet, RICE); assay: Post-emerge test, crop safety; conditions: phytotoxicity rating 0-100 (0 no damage, 100 complete death), 14 days after application
Procedure, shortened: as §1

COc1c(Cl)cc(F)c(-n2c(=O)cc(C(F)(F)F)n(C)c2=O)c1N(C(=O)C1CC1)C(=O)C1CC1 [2-18]
90: Pre-emerge Herbicidal Activity CHEAL (phytotoxicity rating, scale 0-100) ([6]; 250 g ai/ha)
100: Pre-emerge Herbicidal Activity AMARE (phytotoxicity rating, scale 0-100) ([1]; 250 g ai/ha) | Pre-emerge Herbicidal Activity ABUTH (phytotoxicity rating, scale 0-100) ([9]; 250 g ai/ha)
10: Pre-emerge Herbicidal Activity CHEAL (phytotoxicity rating, scale 0-100) ([6]; 63 g ai/ha) | Post-emerge Herbicidal Activity CASOB ([19]; 250 g ai/ha)
0: Pre-emerge Herbicidal Activity ECHCG (phytotoxicity rating, scale 0-100) ([2]; 63 g ai/ha) | Pre-emerge Herbicidal Activity ECHCG (phytotoxicity rating, scale 0-100) ([2]; 250 g ai/ha) | Pre-emerge Herbicidal Activity SETVI (phytotoxicity rating, scale 0-100) ([3]; 63 g ai/ha) | Pre-emerge Herbicidal Activity IPOHE (phytotoxicity rating, scale 0-100) ([4]; 63 g ai/ha) | Pre-emerge Herbicidal Activity SORHA (phytotoxicity rating, scale 0-100) ([5]; 63 g ai/ha) | Pre-emerge Herbicidal Activity SORHA (phytotoxicity rating, scale 0-100) ([5]; 250 g ai/ha) | Pre-emerge Herbicidal Activity DIGSA (phytotoxicity rating, scale 0-100) ([7]; 63 g ai/ha) | Pre-emerge Herbicidal Activity DIGSA (phytotoxicity rating, scale 0-100) ([7]; 250 g ai/ha) | Pre-emerge Herbicidal Activity CASOB (phytotoxicity rating, scale 0-100) ([8]; 63 g ai/ha) | Pre-emerge Herbicidal Activity ABUTH (phytotoxicity rating, scale 0-100) ([9]; 63 g ai/ha) | Pre-emerge crop damage CORN (phytotoxicity rating, scale 0-100) ([10]; 63 g ai/ha) | Pre-emerge crop damage CORN (phytotoxicity rating, scale 0-100) ([10]; 250 g ai/ha) | Pre-emerge crop damage RICE (phytotoxicity rating, scale 0-100) ([11]; 63 g ai/ha) | Post-emerge Herbicidal Activity ECHCG ([12]; 63 g ai/ha) | Post-emerge Herbicidal Activity ECHCG ([12]; 250 g ai/ha) | Post-emerge Herbicidal Activity SETVI ([13]; 63 g ai/ha) | Post-emerge Herbicidal Activity SETVI ([13]; 250 g ai/ha) | Post-emerge Herbicidal Activity IPOHE ([14]; 63 g ai/ha) | Post-emerge Herbicidal Activity SORHA ([15]; 63 g ai/ha) | Post-emerge Herbicidal Activity SORHA ([15]; 250 g ai/ha) | Post-emerge Herbicidal Activity CHEAL ([16]; 63 g ai/ha) | Post-emerge Herbicidal Activity DIGSA ([17]; 63 g ai/ha) | Post-emerge Herbicidal Activity DIGSA ([17]; 250 g ai/ha) | Post-emerge Herbicidal Activity AMARE ([18]; 63 g ai/ha) | Post-emerge Herbicidal Activity CASOB ([19]; 63 g ai/ha) | Post-emerge Herbicidal Activity ABUTH ([20]; 63 g ai/ha) | Post-emerge Herbicidal Activity CORN (crop damage) ([21]; 63 g ai/ha) | Post-emerge Herbicidal Activity CORN (crop damage) ([21]; 250 g ai/ha) | Post-emerge Herbicidal Activity RICE (crop damage) ([22]; 63 g ai/ha) | Post-emerge Herbicidal Activity RICE (crop damage) ([22]; 250 g ai/ha)
50: Post-emerge Herbicidal Activity CHEAL ([16]; 250 g ai/ha)
40: Pre-emerge Herbicidal Activity AMARE (phytotoxicity rating, scale 0-100) ([1]; 63 g ai/ha) | Pre-emerge Herbicidal Activity IPOHE (phytotoxicity rating, scale 0-100) ([4]; 250 g ai/ha) | Pre-emerge Herbicidal Activity CASOB (phytotoxicity rating, scale 0-100) ([8]; 250 g ai/ha) | Post-emerge Herbicidal Activity ABUTH ([20]; 250 g ai/ha)
80: Pre-emerge Herbicidal Activity SETVI (phytotoxicity rating, scale 0-100) ([3]; 250 g ai/ha)
95: Post-emerge Herbicidal Activity AMARE ([18]; 250 g ai/ha)
30: Post-emerge Herbicidal Activity IPOHE ([14]; 250 g ai/ha)
20: Pre-emerge crop damage RICE (phytotoxicity rating, scale 0-100) ([11]; 250 g ai/ha)
